The source of these data is paper PMC6646405, “A quantitative, high-throughput method identifies protein–glycan interactions via mass spectrometry” (Communications Biology, 2019).

Experiment [1] addresses Cholera toxin B subunit homopentamer (CTB5) (Vibrio cholerae serotype O1, UniProt P01556). It counts as binding.
The target in experiment [2] is Sambucus nigra lectin (SNA) (Sambucus nigra, UniProt Q41358). It counts as binding.
In experiment [3] the target is human carbonic anhydrase type 1 (Homo sapiens, UniProt P00915). Put plainly: Direct ESI-MS affinity of OSmod for the universal proxy protein (UniPproxy).
The test system of experiment [4] is Maackia amurensis lectins (MAA). Put plainly: CUPRA library screening and affinity, MAA. It counts as binding. The following applies: 50uM MAA; mean of 4 DIi values, FigS3c. As to the method:
(§1) Unless otherwise noted, the measurements were performed at 25 °C. […] We identified specific ligands from the depletion index (DIi, Eq. 1) – the change in the fractional abundance (Fi, Eq. 2) ratio of ligand i-bound and free ^UniPproxy ions upon addition of GBP. Prior to calculating Fi, we treated each mass spectrum with the Sliding Window Adducts Removal Method (SWARM)[18] to remove contributions to the abundance of ^UniPproxy -OS^mod complex ions from adducts, formed by the ESI process, of neighbouring complex ions (Supplementary Fig. 2). Shown in Fig. 2a is a summary of the DIi measured by CUPRA screening of the 66-component library against S4 (50 μM). As expected, the average DIi for this negative control is close to 1.0 (0.99 ± 0.03). In contrast, CUPRA screening against the positive controls produced decreases in DIi for one or more of the library components. […] Application of CUPRA to human CD22, part of an important class of Neu5Ac-binding GBPs implicated in both innate and adaptive immunity, correctly identified HMO08 as a ligand (Supplementary Fig. 4a). CUPRA screening of MAA at high concentration (50 μM) identified HMO03 and GA06 as ligands. […]
(§2) Using SWARM-treated mass spectra, DIi was calculated for each ligand from the ratio of the fractional abundances (Fi) of ligand (i)-bound and free ^UniPproxy ions in the presence (+GBP) and absence (-GBP) of GBP, Eqs. […]

For experiment [5], the system named is family 51 carbohydrate binding module (CBM51). Put plainly: CUPRA library screening and affinity, CBM51. The note with it: 25uM CBM51; mean of 4 DIi values, FigS3a. As to the method:
as §1, §2

Experiment [6] has as its target streptavidin homotetramer (S4) (Streptomyces avidinii, UniProt P22629). The experiment in a line: CUPRA library screening against negative control streptavidin. The note with it: depletion index, 50 μM streptavidin. Also on record: key: ratio change on GBP addition; ~1.0 = no binding (negative control). It counts as binding.
In a further experiment the target is T1, human siglec-2 (CD22) (Homo sapiens, UniProt P20273).
T1 construct: Residues 1–332 of human Siglec-2 (MW 140 kDa, purity > 95%) were cloned in frame with human IgG1 Fc and a C-terminal His6; made in house
T1 sequence (P20273 20-332): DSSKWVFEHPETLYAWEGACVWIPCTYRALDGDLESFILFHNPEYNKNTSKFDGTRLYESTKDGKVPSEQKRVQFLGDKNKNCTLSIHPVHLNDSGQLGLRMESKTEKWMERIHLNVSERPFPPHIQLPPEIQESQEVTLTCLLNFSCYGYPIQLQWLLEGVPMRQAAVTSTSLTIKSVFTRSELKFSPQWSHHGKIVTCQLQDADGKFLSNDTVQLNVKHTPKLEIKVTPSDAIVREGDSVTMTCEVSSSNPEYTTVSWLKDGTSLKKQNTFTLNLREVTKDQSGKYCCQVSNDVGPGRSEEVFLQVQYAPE
Put plainly: CUPRA library screening and affinity, siglec-2. It counts as binding. The note with it: for average DI: mean of 4 DIi values.

Several values for one entry are separate records, joined by “and”; a condition that tells them apart may be missing. Identical values can stand only once.

Sequence of Sambucus nigra lectin (SNA) (Q41358 309-570 limits assumed): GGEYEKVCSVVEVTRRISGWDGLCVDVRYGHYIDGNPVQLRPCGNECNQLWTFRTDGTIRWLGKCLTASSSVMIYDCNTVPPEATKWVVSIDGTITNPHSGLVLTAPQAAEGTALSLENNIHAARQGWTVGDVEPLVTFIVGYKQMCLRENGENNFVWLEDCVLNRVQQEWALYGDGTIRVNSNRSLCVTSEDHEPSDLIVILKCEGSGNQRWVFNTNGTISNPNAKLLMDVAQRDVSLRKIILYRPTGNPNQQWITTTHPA
Sequence of Sambucus nigra lectin (SNA) (Q41358 29-289 partner limits assumed): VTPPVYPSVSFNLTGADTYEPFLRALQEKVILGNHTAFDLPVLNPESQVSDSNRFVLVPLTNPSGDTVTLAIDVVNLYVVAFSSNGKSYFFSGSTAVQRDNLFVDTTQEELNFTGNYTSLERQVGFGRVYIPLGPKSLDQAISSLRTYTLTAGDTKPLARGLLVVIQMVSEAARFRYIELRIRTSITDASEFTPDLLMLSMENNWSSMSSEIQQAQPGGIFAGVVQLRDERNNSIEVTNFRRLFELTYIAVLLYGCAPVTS
Sequence of Cholera toxin B subunit homopentamer (CTB5) (P01556 22-124 limits assumed): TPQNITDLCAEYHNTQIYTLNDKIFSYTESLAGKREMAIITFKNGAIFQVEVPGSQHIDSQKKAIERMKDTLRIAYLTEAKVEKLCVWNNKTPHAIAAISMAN
Sequence of streptavidin homotetramer (S4) (P22629 25-183): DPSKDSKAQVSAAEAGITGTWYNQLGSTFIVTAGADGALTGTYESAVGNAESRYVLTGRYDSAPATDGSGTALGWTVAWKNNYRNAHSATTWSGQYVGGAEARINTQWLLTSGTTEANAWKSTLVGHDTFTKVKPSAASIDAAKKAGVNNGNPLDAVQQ
Sequence of human carbonic anhydrase type 1 (P00915 whole entry): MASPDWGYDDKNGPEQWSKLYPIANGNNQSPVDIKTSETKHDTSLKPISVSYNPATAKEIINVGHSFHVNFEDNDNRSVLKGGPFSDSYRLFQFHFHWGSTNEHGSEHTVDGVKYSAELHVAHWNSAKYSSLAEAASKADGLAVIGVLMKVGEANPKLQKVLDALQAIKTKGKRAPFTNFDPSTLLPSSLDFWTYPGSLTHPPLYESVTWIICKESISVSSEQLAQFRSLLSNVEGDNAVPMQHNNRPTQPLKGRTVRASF

In the case of `CC(=O)N(CCOCCOCCNC(=O)C(Cc1ccccc1)NC(=O)C(Cc1ccccc1)NC(=O)CCCC(=O)NCCc1ccc(S(N)(=O)=O)cc1)C1OC(CO)C(OC2OC(CO)C(O)C(O)C2O)C(O)C1O` (stereo not drawn) [HMO01, Galβ1-4Glc-CL], the “DIi(2uM CTB5)” value in experiment [1] is 0.9935 and 0.9881 and 0.9983 and 0.9929. Besides, the “DIi(10uM CTB5)” value in experiment [1] is 0.9693 and 0.964 and 0.9533 and 0.9481. In addition, the “DIi(10uM CTB5 at 0C)” value in experiment [1] was 1.005 and 0.995 and 1.012 and 1.002. In addition, the “average DI” value is 0.9932 and 0.9587 and 1.004 in experiment [1]; 1.032 in experiment [2]; 1.065 in experiment [4]; 1.026 in experiment [5]; 0.9888 in experiment [6] (mean of 4); 1.013 on human siglec-2 (CD22) (25uM CD22). Besides, the “average DI” value on human siglec-2 (CD22) (25uM CD22 at 0C) turned out to be 1.021. For the same compound, the “DIi(5uM SNA)” value in experiment [2] is 1.0284 and 1.03 and 1.033 and 1.035. Further, the Kd (as a rule, the equilibrium constant for the complex coming apart) in experiment [3] was 5.1 ± 1.4 µM. In addition, the “DIi(50uM S4)” value was determined as 0.9878 in experiment [6] (measurement 1 of 4), 0.986 in experiment [6] (measurement 2 of 4), 0.9917 in experiment [6] (measurement 3 of 4) and 0.9898 in experiment [6] (measurement 4 of 4). Further, the “DIi(25uM CD22)” value came out at 1.023 on human siglec-2 (CD22) (25uM CD22, replicate column 1 of 4); 1.029 on human siglec-2 (CD22) (25uM CD22, replicate column 2 of 4); 0.9963 at human siglec-2 (CD22) (25uM CD22, replicate column 3 of 4); 1.002 at human siglec-2 (CD22) (25uM CD22, replicate column 4 of 4). Also, the “DIi(25uM CD22 at 0C)” value on human siglec-2 (CD22) (25uM CD22 at 0C, replicate column 1 of 4) is listed as 1.003; at human siglec-2 (CD22) (25uM CD22 at 0C, replicate column 2 of 4) it was 1.007; on human siglec-2 (CD22) (25uM CD22 at 0C, replicate column 3 of 4), 1.036; at human siglec-2 (CD22) (25uM CD22 at 0C, replicate column 4 of 4) it was 1.04.
